# Assay results: US20130216498A1, “IMIDAZOPYRIDINE DERIVATIVES AS JAK INHIBITORS” (priority 2009, published 2013)
# Assays:
# Format in all cases: biochemical
# [1] = biological target: T1, human JAK3 (aa 795-1124) catalytic domain (Homo sapiens, UniProt P52333); test: In vitro JAK kinase assay (TR-FRET), JAK3; conditions: GST-fusion catalytic domain; ATP 0.6 μM; poly (GT)-Biotin 140 nM; 30 minutes at room temperature
# T1 construct: JAK3 (aa 795-1124); GST (N); purchased Carna Biosciences; host or cells: baculovirus expression system
# T1 sequence (P52333 795-1124): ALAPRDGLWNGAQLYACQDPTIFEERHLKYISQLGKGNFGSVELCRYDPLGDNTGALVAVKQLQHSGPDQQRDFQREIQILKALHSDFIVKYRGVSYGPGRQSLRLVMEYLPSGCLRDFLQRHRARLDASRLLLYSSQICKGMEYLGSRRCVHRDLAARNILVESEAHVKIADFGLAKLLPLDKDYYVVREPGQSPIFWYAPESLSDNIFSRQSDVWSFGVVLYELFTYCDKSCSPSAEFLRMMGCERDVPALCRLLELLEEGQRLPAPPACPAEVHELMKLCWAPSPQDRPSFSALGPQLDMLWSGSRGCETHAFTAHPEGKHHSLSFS
# Description: (§1) Compounds were screened for their ability to inhibit JAK1, JAK2 and JAK3 using the assays as indicated below.
# (§2) The catalytic domains of human JAK1 (aa 850-1154), JAK2 (aa 826-1132), JAK3 (aa 795-1124) and Tyk2 (aa 871-1187) were expressed as N-terminal GST-fusion proteins using a baculovirus expression system and were purchased from Carna Biosciences. The enzymatic activity was assayed using as substrate a biotinylated peptide, poly (GT)-Biotin (CisBio). The peptide concentration in the reactions was 60 nM for JAK1, 20 nM for JAK2, 140 nM for JAK3 and 50 nM for Tyk2. The degree of phosphorylation was detected by TR-FRET (time-resolved fluorescence energy transfer).
# (§3) IC50s of compounds were measured for each kinase in a reaction mixture containing the enzyme, ATP and the peptide in 8 mM MOPS (pH 7.0), 10 mM MgCl2, 0.05% β-mercaptoethanol, 0.45 mg/mL BSA. The ATP concentration in the reactions was 3 μM for JAK1, 0.2 μM for JAK2, 0.6 μM for JAK3 and 1.8 μM for Tyk2. The enzymatic reactions took place for 30 minutes at room temperature. Then, the reactions were stopped with 20 μL of quench detection buffer (50 mM HEPES, 0.5 M KF, EDTA 0.25 M, 0.1% (w/v) BSA, pH 7.5) containing 0.115 μg/mL of anti-phosphoTyr (PT66)-Cryptate (CisBio) and a variable concentration of SA-XL665 (CisBio) to keep the SA-B ratio constant. Incubate for 3 h and read on Victor 2V spectrofluorometer (PerkinElmer) set to read fluorescence resonance energy transfer.
# [2] = biological target: T2, human JAK2 (aa 826-1132) catalytic domain (Homo sapiens, UniProt O60674); test: In vitro JAK kinase assay (TR-FRET), JAK2; conditions: GST-fusion catalytic domain; ATP 0.2 μM; poly (GT)-Biotin 20 nM; 30 minutes at room temperature
# T2 construct: JAK2 (aa 826-1132); GST (N); purchased Carna Biosciences; host or cells: baculovirus expression system
# T2 sequence (O60674 826-1132): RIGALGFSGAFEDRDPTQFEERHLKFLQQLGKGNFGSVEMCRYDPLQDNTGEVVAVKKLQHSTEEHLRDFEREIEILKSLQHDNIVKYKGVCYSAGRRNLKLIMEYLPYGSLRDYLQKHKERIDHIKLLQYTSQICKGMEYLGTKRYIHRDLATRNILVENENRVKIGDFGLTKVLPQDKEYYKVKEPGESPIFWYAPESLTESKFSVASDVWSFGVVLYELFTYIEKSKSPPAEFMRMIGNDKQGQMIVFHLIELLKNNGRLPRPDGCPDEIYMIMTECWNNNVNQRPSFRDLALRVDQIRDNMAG
# Description: as §1, §2, §3
# [3] = biological target: T3, human JAK1 (aa 850-1154) catalytic domain (Homo sapiens, UniProt P23458); test: In vitro JAK kinase assay (TR-FRET), JAK1; conditions: GST-fusion catalytic domain; ATP 3 μM; poly (GT)-Biotin 60 nM; 30 minutes at room temperature
# T3 construct: human JAK1 (aa 850-1154); GST (N); purchased Carna Biosciences; host or cells: baculovirus expression system
# T3 sequence (P23458 850-1154): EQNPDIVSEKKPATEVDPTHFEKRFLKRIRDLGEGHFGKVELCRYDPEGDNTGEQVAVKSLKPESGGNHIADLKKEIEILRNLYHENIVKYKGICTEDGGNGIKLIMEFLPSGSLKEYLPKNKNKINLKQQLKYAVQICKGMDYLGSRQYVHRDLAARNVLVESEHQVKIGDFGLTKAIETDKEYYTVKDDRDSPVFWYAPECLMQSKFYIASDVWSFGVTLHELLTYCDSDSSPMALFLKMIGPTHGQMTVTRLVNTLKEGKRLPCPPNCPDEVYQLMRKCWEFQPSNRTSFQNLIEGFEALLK
# Description: as §1, §2, §3
Compound,IC50 [1] [nM],IC50 [2] [nM],IC50 [3] [nM]
"N#Cc1cnc(N2CCC[C@@H](Nc3ccnc(-c4cnc5ccc(F)cn45)n3)C2)s1 [Example 131, (R)-2-(3-(2-(6-Fluoroimidazo[1,2-a]pyridin-3-yl)pyrimidin-4-ylamino)piperidin-1-yl)thiazole-5-carbonitrile]",< 100,< 100,< 100
"C[C@@H](c1ccc(F)cn1)N(C)c1nc(-c2cnc3ccc(F)cn23)ncc1C(=O)O [Example 145, (S)-2-(6-Fluoroimidazo[1,2-a]pyridin-3-yl)-4-((1-(5-fluoropyridin-2-yl)ethyl)(methyl)amino)pyrimidine-5-carboxylic acid]",100 to 1000,< 100,100 to 1000
"COc1cnc(-c2cnc3ccc(F)cn23)nc1N[C@@H]1CCCN(C(=O)CC#N)C1 [Example 163, (R)-3-(3-(2-(6-Fluoroimidazo[1,2-a]pyridin-3-yl)-5-methoxypyrimidin-4-ylamino)piperidin-1-yl)-3-oxopropanenitrile]",< 100,< 100,100 to 1000
"N#CCC(=O)N1CCC[C@@H](Nc2cc(-n3cncn3)nc(-c3cnc4ccc(F)cn34)n2)C1 [Example 164, (R)-3-(3-(2-(6-Fluoroimidazo[1,2-a]pyridin-3-yl)-6-(M−1,2,4-triazol-1-yl)pyrimidin-4-ylamino)piperidin-1-yl)-3-oxopropanenitrile]",< 100,< 100,100 to 1000
"CCN(CC)C(=O)[C@H]1CCCN1c1ccnc(-c2cnc3ccc(F)cn23)n1 [Example 92, (R)—N,N-Diethyl-1-(2-(6-fluoroimidazo[1,2-a]pyridin-3-yl)pyrimidin-4-yl)pyrrolidine-2-carboxamide]",> 1000,< 100,100 to 1000
"Cc1cnc(-c2cnc3ccc(F)cn23)nc1N[C@@H]1CCN(C(=O)CC#N)C1 [Example 134, (R)-3-(3-(2-(6-Fluoroimidazo[1,2-a]pyridin-3-yl)-5-methylpyrimidin-4-ylamino)pyrrolidin-1-yl)-3-oxopropanenitrile]",100 to 1000,< 100,100 to 1000

# Second part, the compound after the results:
IC50 [1] [nM],IC50 [2] [nM],IC50 [3] [nM],Compound
100 to 1000,< 100,100 to 1000,"CC(C)(C)CNc1ccnc(-c2cnc3ccccn23)n1 [Example 31, N-(2,2-Dimethylpropyl)-2-imidazo[1,2-a]pyridin-3-ylpyrimidin-4-amine]"
< 100,< 100,> 1000,"N#CC[C@H]1CC[C@H](Nc2nc(-c3cnc4ccc(F)cn34)ncc2C(N)=O)CC1 [Example 153, 4-((1r,4r)-4-(Cyanomethyl)cyclohexylamino)-2-(6-fluoroimidazo[1,2-a]pyridin-3-yl)pyrimidine-5-carboxamide]"
< 100,< 100,100 to 1000,"CN(CC#N)C(=O)N1CCC[C@@H](Nc2ccnc(-c3cnc4ccc(F)cn34)n2)C1 [Example 68, (3R)—N-(Cyanomethyl)-3-{[2-(6-fluoroimidazo[1,2-a]pyridin-3-yl)pyrimidin-4-yl]amino}-N-methylpiperidine-1-carboxamide]"
< 100,< 100,< 100,Nc1cnc(-c2cnc3ccc(F)cn23)nc1NCc1ccc(F)cn1 [Example 136]
100 to 1000,< 100,100 to 1000,"O=C([C@H](O)CO)N1CCC[C@@H](Nc2nc(-c3cnc4ccc(F)cn34)nc(N3CCOCC3)c2F)C1 [Example 185, (R)-1-((R)-3-(5-Fluoro-2-(6-fluoroimidazo[1,2-a]pyridin-3-yl)-6-morpholinopyrimidin-4-ylamino)piperidin-1-yl)-2,3-dihydroxypropan-1-one]"
100 to 1000,100 to 1000,> 1000,"COCCNc1ccnc(-c2cnc3ccc(C#N)cn23)n1 [Example 6, 3-{4[(2-Methoxyethyl)amino]pyrimidin-2-yl}imidazo[1,2-a]pyridine-6-carbonitrile]"
> 1000,100 to 1000,> 1000,"CCCN1CC[C@@H](Nc2ccnc(-c3cnc4ccc(F)cn34)n2)C1=O [Example 89, (R)-3-(2-(6-Fluoroimidazo[1,2-a]pyridin-3-yl)pyrimidin-4-ylamino)-1-propyl pyrrolidin-2-one]"
